Columns and labels:
Recombinant human JAK1 = target: T1, Recombinant human JAK1 (Homo sapiens, UniProt P23458); experiment: JAK1 Ulight-JAK1 peptide assay; assay type: biochemical; settings: Ulight-JAK1(tyr1023) peptide, 7 μM ATP
T1 construct: catalytic domain (amino acids 866-1154; catalog number PV4774); purchased Invitrogen PV4774
Outline: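 TR-FRET assay: recombinant human JAK1 catalytic domain (aa 866-1154, 1 ng) phosphorylates 20 nM Ulight-JAK1(tyr1023) peptide at 7 μM ATP in MOPS pH 6.8 buffer, 1% DMSO, for 60 min at room temperature. Eu-anti-phosphotyrosine detection follows EDTA stop. IC50 comes from 10-point ⅕ dilutions from 20 μM, normalized to 10 μM staurosporine.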

Recombinant human JAK2 = target: T2, Recombinant human JAK2 (Homo sapiens, UniProt O60674); experiment: JAK2 Ulight-JAK1 peptide assay; assay type: biochemical; settings: Ulight-JAK1(tyr1023) peptide, 7.5 μM ATP
T2 construct: catalytic domain (amino acids 808-1132; catalog number PV4210); GST; purchased Invitrogen PV4210
Outline: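 JAK2 catalytic domain ([…]), 0.0125 mU, with 25 nM Ulight-JAK1(tyr1023) peptide, 7.5 μM ATP, HEPES pH7.0, 60 min at room temperature; stopped with EDTA and Eu-anti-phosphotyrosine, TR-FRET read at 615 nm. Inhibition normalised to vehicle and 10 μM staurosporine; IC50 from 10-point ⅕ dilutions from 20 μM, 1% DMSO.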

[1] = test system: JAK-STAT signalling in HeLa cells; experiment: JAK-STAT signalling assay (pSTAT1(2)-luciferase reporter, OSM-triggered HeLa cells); assay type: cell-based; settings: human OSM 33 ng/mL
Method: HeLa cells were maintained in Dulbecco's Modified Eagle's Medium (DMEM) containing 10% heat inactivated fetal calf serum, 100 U/mL penicillin and 100 μg/mL streptomycin. HeLa cells were used at 70% confluence for transfection. 20,000 cells in 87 μL cell culture medium were transiently transfected with 40 ng pSTAT1(2)-luciferase reporter (Panomics), 8 ng of LacZ reporter as internal control reporter and 52 ng of pBSK using 0.32 μL Jet-PEI (Polyplus) as transfection reagent per well in 96-well plate format. After overnight incubation at 37° C., 5% CO2, transfection medium was removed. 81 μL of DMEM+1.5% heat inactivated fetal calf serum was added. 9 μL compound at 10× concentration was added for 60 min and then 10 μL of human OSM (Peprotech) at 33 ng/mL final concentration.
All compounds were tested in duplicate starting from 20 μM followed by a ⅓ serial dilution, 8 doses in total (20 μM-6.6 μM-2.2 μM-740 nM-250 nM-82 nM-27 nM-9 nM) in a final concentration of 0.2% DMSO.
After overnight incubation at 37° C., 5% CO2 cells were lysed by adding 100 μL lysis buffer/well (PBS, 0.9 mM CaCl2, 0.5 mM MgCl2, 10% Trehalose, 0.05% Tergitol NP9, 0.3% BSA).
40 μL of cell lysate was used to read β-galactosidase activity by adding 180 μL β-Gal solution (30 μl ONPG 4 mg/mL+150 μL β-Galactosidase buffer (0.06 M Na2HPO4, 0.04 M NaH2PO4, 1 mM MgCl2)) for 20 min. The reaction was stopped by addition of 50 μL Na2CO3 1 M. Absorbance was read at 405 nm.
Luciferase activity was measured using 40 μL cell lysate plus 40 μL of Steadylite® as described by the manufacturer (Perkin Elmer), on the Envision (Perkin Elmer).
Omitting OSM was used as a positive control (100% inhibition). As negative control 0.5% DMSO (0% inhibition) was used. The positive and negative controls were used to calculate z′ and ‘percent inhibition’ (PIN) values. Percentage inhibition=((fluorescence determined in the presence of vehicle−fluorescence determined for sample with test compound present)divided by(fluorescence determined in the presence of vehicle−fluorescence determined for sample without trigger))*100.
PIN values were plotted for compounds tested in dose-response and EC50 values were derived.

T1 sequence (P23458 866-1154): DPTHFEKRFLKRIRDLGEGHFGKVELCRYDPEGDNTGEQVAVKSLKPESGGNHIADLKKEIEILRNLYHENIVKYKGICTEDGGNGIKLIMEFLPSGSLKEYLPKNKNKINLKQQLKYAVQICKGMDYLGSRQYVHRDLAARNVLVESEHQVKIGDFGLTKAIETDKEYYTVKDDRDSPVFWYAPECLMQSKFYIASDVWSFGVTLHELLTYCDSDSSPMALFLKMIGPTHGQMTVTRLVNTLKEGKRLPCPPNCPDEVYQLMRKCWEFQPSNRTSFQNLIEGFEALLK
T2 sequence (O60674 808-1132): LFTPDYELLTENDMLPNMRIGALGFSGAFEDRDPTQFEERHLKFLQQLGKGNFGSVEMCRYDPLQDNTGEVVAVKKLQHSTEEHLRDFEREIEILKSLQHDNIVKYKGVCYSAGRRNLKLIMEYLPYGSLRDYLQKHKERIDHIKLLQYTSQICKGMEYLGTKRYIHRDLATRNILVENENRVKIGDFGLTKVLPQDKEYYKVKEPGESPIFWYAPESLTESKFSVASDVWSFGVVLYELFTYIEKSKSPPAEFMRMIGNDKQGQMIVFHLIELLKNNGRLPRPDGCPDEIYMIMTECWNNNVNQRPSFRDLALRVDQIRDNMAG

Row | IC50 (Recombinant human JAK1) [nM] | IC50 (Recombinant human JAK2) [nM] | IC50 [1] [nM] | Structure (SMILES)
1 | 0.01 to 100 | 0.01 to 100 | 101 to 500 | C[C@H](c1ccc(-c2cccn3nc(NC(=O)C4CC4)cc23)cc1)N1CCN(S(C)(=O)=O)CC1 [Compound 46, (R)-N-(4-(4-(1-(4-(methylsulfonyl)piperazin-1-yl)ethyl)phenyl)pyrazolo[1,5-a]pyridin-2-yl)cyclopropanecarboxamide]
2 | 0.01 to 100 | 0.01 to 100 | 101 to 500 | C[C@@H](c1ccc(-c2cccn3nc(NC(=O)C4CC4)cc23)cc1)N1CCN(S(C)(=O)=O)CC1 [Compound 47, (S)-N-(4-(4-(1-(4-(methylsulfonyl)piperazin-1-yl)ethyl)phenyl)pyrazolo[1,5-a]pyridin-2-yl)cyclopropanecarboxamide]
3 | 0.01 to 100 | 101 to 500 | 501 to 1000 | O=C(Nc1cc2c(-c3ccc(CN4CCCCC45COC5)cc3)cccn2n1)C1CC1 [Compound 48, N-(4-(4-(2-oxa-5-azaspiro[3.5]nonan-5-ylmethyl)phenyl)pyrazolo[1,5-a]pyridin-2-yl)cyclopropanecarboxamide]
4 | 0.01 to 100 | > 1000 | 101 to 500 | CS(=O)(=O)N1CC[C@@H](Oc2ccc(-c3cccn4nc(NC(=O)C5CC5)cc34)cc2)C1 [Compound 49, (R)-N-(4-(4-(1-(methylsulfonyl)pyrrolidin-3-yloxy)phenyl)pyrazolo[1,5-a]pyridin-2-yl)cyclopropanecarboxamide]

— patent US8975406B2, “Compound useful for the treatment of degenerative and inflammatory diseases” (Galapagos N.V., priority 2011, dated 2015)
